Assays:
[1] = target: T1, IDO1 enzyme in the Hela cell (Homo sapiens, UniProt P14902); experiment: Cell activity: interferon γ-stimulated Hela cells, absorbance of supernatant at 480 nm; type: cell-based; details: interferon γ 100 ng/ml, 72 hours
T1 construct: endogenous in cells; host or cells: HeLa cells stimulated with interferon γ (100 ng/ml)
Outline: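 HeLa cells treated with compound plus interferon γ (100 ng/ml final) and cultured 72 h at 37 °C. Supernatant treated with trichloroacetic acid 30 min at 50 °C, centrifuged, then mixed with 2% dimethylaminobenzaldehyde in acetic acid; absorbance read at 480 nm.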

[2] = target: IDO1 enzyme (Homo sapiens, UniProt P14902); experiment: Determination of biochemical activity of IDO1 enzyme (absorbance at 320 nm); details: room temperature, 3 hours
Chain of IDO1 enzyme (P14902 whole entry): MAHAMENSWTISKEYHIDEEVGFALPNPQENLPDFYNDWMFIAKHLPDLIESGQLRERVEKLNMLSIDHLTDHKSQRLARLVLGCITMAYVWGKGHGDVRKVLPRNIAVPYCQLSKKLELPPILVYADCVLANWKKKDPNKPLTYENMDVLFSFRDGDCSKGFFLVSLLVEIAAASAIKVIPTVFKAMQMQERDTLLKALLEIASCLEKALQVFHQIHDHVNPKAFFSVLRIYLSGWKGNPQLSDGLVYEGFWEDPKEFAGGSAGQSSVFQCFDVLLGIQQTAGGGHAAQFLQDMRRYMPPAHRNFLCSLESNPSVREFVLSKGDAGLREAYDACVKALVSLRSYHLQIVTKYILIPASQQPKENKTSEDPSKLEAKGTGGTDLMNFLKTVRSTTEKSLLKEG
Outline: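 Enzyme and compound were reacted in sodium hydrogen phosphate buffer (pH 7-8) for 3 hours at room temperature. Absorbance at 320 nm gave inhibition rate, and IC50 was calculated from it.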

T1 sequence (P14902 whole entry): as above

Row | IC50 [1] | IC50 [2] | SMILES
1 | 0.1 to 1 µM | 0.1 to 1 µM | NC1CCC(NC(=O)Nc2conc2/C(=N/O)Nc2ccc(F)c(Br)c2)CC1 (stereo not shown) [Embodiment 108]
2 | < 0.001 µM | < 0.001 µM | O=C(NCCCO)Nc1nonc1/C(=N/O)Nc1ccc(F)c(Br)c1 [Embodiment 13, (Z)-1-(4-(N-(3-bromo-4-fluorophenyl)-N′-hydroxyaminoiminomethyl)-1,2,5-oxadiazole-3-substituted)-3-(3-hydroxypropane)urea]
3 | > 1 µM | > 1 µM | O=C(Nc1ccc(F)cc1)Nc1nonc1/C(=N/O)Nc1ccc(F)c(Br)c1 [Embodiment 5, (Z)-1-(4-(N-(4-bromo-3-fluorophenyl)-N′-hydroxyaminoiminomethyl)-1,2,5-oxadiazole-3-substituted)-3-(4-fluorophenyl)urea]
4 | < 0.001 µM | < 0.001 µM | O=C(NCCO)Nc1nocc1/C(=N/O)Nc1ccc(F)c(Br)c1 [Embodiment 89, (Z)-1-(4-(N-(3-bromo-4-fluorophenyl)-N′-hydroxyaminoiminomethyl)-isoxazole-3-substituted)+3-(2-hydroxyethyl)urea]
5 | 0.1 to 1 µM | 0.1 to 1 µM | O=C(Nc1cocc1/C(=N/O)Nc1ccc(F)c(Br)c1)Nc1c[nH]c2ccccc12 [Embodiment 74, (Z)-1-(4-(N-(3-bromo-4-fluorophenyl)-N′-hydroxyaminoiminomethyl)-furan-3-substituted)-3-(3-aminoindole)urea]
6 | < 0.001 µM | < 0.001 µM | NS(=O)(=O)NCCNC(=O)Nc1nonc1/C(=N/O)Nc1ccc(F)c(Cl)c1 [Embodiment 30]
7 | 0.1 to 1 µM | 0.1 to 1 µM | COc1ccc(NC(=O)Nc2cocc2/C(=N/O)Nc2ccc(F)c(Br)c2)cc1 [Embodiment 58, (Z)-1-(4-(N-(3-bromo-4-fluorophenyl)-N′-hydroxyaminoiminomethyl)-furan-3-substituted)-3-(4-methoxyphenyl)urea]
8 | < 0.001 µM | < 0.001 µM | N=C(Nc1nonc1/C(=N/O)Nc1ccc(F)c(Br)c1)NC1CCC(O)CC1 (stereo not shown) [Embodiment 147, (Z)-1-(4-(N-(3-bromo-4-fluorophenyl)-N′-hydroxyaminoiminomethyl)-1,2,5-oxadiazole-3-substituted)-3-(4-hydroxycyclohexyl)guanidine]
9 | 0.1 to 1 µM | 0.1 to 1 µM | O/N=C(\Nc1ccc(F)c(Br)c1)c1nonc1NC(=S)NC1CCCCC1 [Embodiment 121, (Z)-1-(4-(N-(3-bromo-4-fluorophenyl)-N′-hydroxyaminoiminomethyl)-1,2,5-oxadiazole-3-substituted-)-3-(cyclohexyl)thiourea]
10 | 0.1 to 1 µM | 0.1 to 1 µM | N=C(Nc1nonc1/C(=N/O)Nc1ccc(F)c(Br)c1)NC1CCC(N)CC1 (stereo not shown) [Embodiment 150, (Z)-1-(4-(N-(3-bromo-4-fluorophenyl)-N′-hydroxyaminoiminomethyl)-1,2,5-oxadiazole-3-substituted)-3-(4-aminocyclohexyl)guanidine]
11 | 0.1 to 1 µM | 0.1 to 1 µM | O=C(Nc1cc[nH]c1)Nc1nonc1/C(=N/O)Nc1ccc(F)c(Br)c1 [Embodiment 40, (Z)-1-(4-(N-(3-bromo-4-fluorophenyl)-N′-hydroxyaminoiminomethyl)-1,2,5-oxadiazole-3-substituted)-3-(1H-pyrrole-3-substituted)urea]
12 | 0.1 to 1 µM | 0.1 to 1 µM | NCCCNC(=O)Nc1cocc1/C(=N/O)Nc1ccc(F)c(Br)c1 [Embodiment 67, (Z)-1-(4-(N-(3-bromo-4-fluorophenyl)-N′-hydroxyaminoiminomethyl)-furan-3-substituted)-3-(3-aminopropyl)urea]
13 | > 1 µM | > 1 µM | O=C(Nc1cc[nH]c1)Nc1cocc1/C(=N/O)Nc1ccc(F)c(Br)c1 [Embodiment 76, (Z)-1-(4-(N-(3-bromo-4-fluorophenyl)-N′-hydroxyaminoiminomethyl)-furan-3-substituted)-3-(1H-pyrrole-3-substituted)urea]
14 | > 1 µM | > 1 µM | O=C(Nc1ccc(C(F)(F)F)cc1)Nc1nonc1/C(=N/O)Nc1ccc(F)c(Br)c1 [Embodiment 6, (Z)-1-(4-(N-(3-bromo-4-fluorophenyl)-N′-hydroxyaminoiminomethyl)-1,2,5-oxadiazole-3-substituted)-3-(4-trifluorotolyl)urea]
15 | > 1 µM | > 1 µM | O=C(Nc1ccccc1)Nc1cocc1/C(=N/O)Nc1ccc(F)c(Br)c1 [Embodiment 60, (Z)-1-(4-(N-(3-bromo-4-fluorophenyl)-N′-hydroxyaminoiminomethyl)-furan-3-substituted)-3-phenylurea]
16 | 0.1 to 1 µM | 0.1 to 1 µM | O=C(Nc1nonc1/C(=N/O)Nc1ccc(F)c(Br)c1)NC1CCCCC1 [Embodiment 7, (Z)-1-(4-(N-(3-bromo-4-fluorophenyl)-N′-hydroxyaminoiminomethyl)-1,2,5-oxadiazole-3-substituted)-3-cyclohexylurea]
17 | < 0.001 µM | < 0.001 µM | N=C(Nc1nonc1/C(=N/O)Nc1ccc(F)c(Br)c1)NC1CCCCC1 [Embodiment 145, (Z)-1-(4-(N-(3-bromo-4-fluorophenyl)-N′-hydroxyaminoiminomethyl)-1,2,5-oxadiazole-3-substituted)-3-cyclohexylguanidine]
18 | < 0.001 µM | < 0.001 µM | O=C(Nc1nonc1/C(=N/O)Nc1ccc(F)cc1)NC1CCC(O)CC1 (stereo not shown) [Embodiment 55]
19 | 0.1 to 1 µM | 0.1 to 1 µM | O=C(Nc1nonc1/C(=N/O)Nc1ccc(F)cc1)NC1CCCCC1 [Embodiment 52, (Z)-1-(4-(N-(4-fluorophenyl)-N′-hydroxyaminoiminomethyl)-1,2,5-oxadiazole-3-substituted)-3-cyclohexylurea]
20 | 0.1 to 1 µM | 0.1 to 1 µM | N=C(Nc1ccccc1)Nc1cocc1/C(=N/O)Nc1ccc(F)c(Br)c1 [Embodiment 161, (Z)-1-(4-(N-(3-bromo-4-fluorophenyl)-N′-hydroxyaminoiminomethyl)-furan-3-substituted)-3-phenylguanidine]
21 | > 1 µM | > 1 µM | N=C(Nc1nonc1/C(=N/O)Nc1ccc(F)c(Br)c1)NC1CC1 [Embodiment 149, (Z)-1-(4-(N-(3-bromo-4-fluorophenyl)-N′-hydroxyaminoiminomethyl)-1,2,5-oxadiazole-3-substituted)-3-(cyclopropyl)guanidine]
22 | 0.1 to 1 µM | 0.1 to 1 µM | COc1ccc(NC(=N)Nc2nonc2/C(=N/O)Nc2ccc(F)c(Br)c2)c(F)c1 [Embodiment 144]
23 | 0.1 to 1 µM | 0.1 to 1 µM | COc1ccc(NC(=O)Nc2nocc2/C(=N/O)Nc2ccc(F)c(Cl)c2)cc1 [Embodiment 97, (Z)-1-(4-(N-(3-chloro-4-fluorophenyl)-N′-hydroxyaminoiminomethyl)-isoxazole-3-substituted)-3-(4-methoxyphenyl)urea]
24 | < 0.001 µM | < 0.001 µM | O=C(Nc1cocc1/C(=N/O)Nc1ccc(F)c(Br)c1)NC1CCC(O)CC1 (stereo not shown) [Embodiment 63, (Z)-1-(4-(N-(3-bromo-4-fluorophenyl)-N′-hydroxyaminoiminomethyl)-furan-3-substituted)-3-(4-hydroxycyclohexyl)urea]
25 | 0.1 to 1 µM | 0.1 to 1 µM | COc1ccc(NC(=O)Nc2nocc2/C(=N/O)Nc2ccc(F)c(Br)c2)cc1 [Embodiment 79, (Z)-1-(4-(N-(3-bromo-4-fluorophenyl)-N′-hydroxyaminoiminomethyl)-isoxazole-3-substituted)-3-(4-methoxyphenyl)urea]
26 | 0.1 to 1 µM | 0.1 to 1 µM | O/N=C(\Nc1ccc(F)c(Br)c1)c1conc1NC(=S)NC1CCCCC1 [Embodiment 135, (Z)-1-(4-(N-(3-bromo-4-fluorophenyl)-N′-hydroxyaminoiminomethyl)-isoxazole-3-substituted)-3-(cyclohexyl)thiourea]
27 | > 1 µM | > 1 µM | O/N=C(\Nc1ccc(F)c(Br)c1)c1nonc1NC(=S)Nc1ccc(C(F)(F)F)cc1 [Embodiment 119, (Z)-1-(4-(N-(3-bromo-4-fluorophenyl)-N′-hydroxyaminoiminomethyl)-1,2,5-oxadiazole-3-substituted)-3-(4-trifluoromethylphenyl)thiourea]
28 | 0.1 to 1 µM | 0.1 to 1 µM | O=C(Nc1nonc1/C(=N/O)Nc1ccc(F)c(Br)c1)Nc1cccc2[nH]ccc12 [Embodiment 34, (Z)-1-(4-(N-(3-bromo-4-fluorophenyl)-N′-hydroxyaminoiminomethyl)-1,2,5-oxadiazole-3-substituted)-3-(1H-indole-4-substituted)urea]
29 | 0.1 to 1 µM | 0.1 to 1 µM | O=C(Nc1ccccc1)Nc1nonc1/C(=N/O)Nc1ccc(F)cc1 [Embodiment 51, (Z)-1-(4-(N-(4-fluorophenyl)-N′-hydroxyaminoiminomethyl)-1,2,5-oxadiazole-3-substituted)-3-phenylurea]

— patent US11014895B2, “Heterocyclic urea compound, and drug composition and application thereof” (CHINA PHARMACEUTICAL UNIVERSITY, priority 2017, dated 2021)
